According to patent US20190233884A1 (University of Southern California, priority 2016, published 2019):

Tested on: patients with refractory metastatic colorectal cancer (mCRC)
Test: PFS, OS and disease control in the control cohort of refractory mCRC patients receiving regorafenib (n=52, Italy), by baseline characteristics and SNP genotype
Format: in vivo, human
Conditions: control cohort
Experimental: All patients underwent the treatment in salvage-line setting.
(§1) Patients in the control group received 160 mg regorafenib (Bayer, Leverkusen, Germany) once daily from day 1 to 21 every 4 weeks. Doses were adjusted based on haematological and non-haematological adverse events at the treating physician's discretion in accordance with the manufacturer's recommendations. The analyses were approved by the University of Southern California (USC) Institutional Review Board of Medical Sciences and conducted at the USC/Norris Comprehensive Cancer Center in accordance with the Declaration of Helsinki and Good Clinical Practice Guidelines.
(§2) Genomic DNA was extracted from peripheral whole blood in patients of all cohorts using the QIAmp Kit (Qiagen, Valencia, Calif., USA) according to the manufacturer's protocol (www.qiagen.com). The candidate SNPs were genotyped using PCR-based direct DNA sequence analysis by ABI 3100A Capillary Genetic Analyzer and Sequencing Scanner v1.0 (Applied Biosystems). Amplification of extracted DNA was carried out using both forward and reverse primers for each gene polymorphism as shown in Table 1. […] The investigators analyzing SNPs were blinded to the clinical data of the study patients.
The primary endpoint in this study was progression-free survival (PFS), and the secondary endpoints were overall survival (OS) and disease control rate (DCR). PFS was calculated from the date of starting treatment to the first observation of disease progression or death from any cause. If a patient had no disease progression or death, PFS was censored at the date of last follow up. OS was calculated from the date of starting treatment until the date of death from any cause or the date of the last follow-up, at which point OS was censored. The disease control rate (DCR) was defined as the proportion of patients who achieved a stable disease (SD) or […] according to RECISTv1.1. Chi-square test was used to examine the difference in baseline patient characteristics among the three cohorts. Allelic distribution of all SNPs by ethnicity for deviation from Hardy-Weinberg equilibrium and the allelic frequencies of SNPs were tested using the Chi-square tests with one degree of freedom. The associations between candidate SNPs and disease control, and toxicities were examined using contingency tables and Fisher's exact test. The associations of SNPs with PFS and OS were analysed using Kaplan-Meier curves and the log-rank test. Because the true mode of inheritance of candidate SNPs was not established yet, a codominant or dominant genetic model if appropriate was considered.
All patients underwent the treatment in salvage-line setting. […] In all patients, adverse events were graded according to the Common Terminology Criteria for Adverse Events, version 4.0.
as §1, with “events at treating physician's” for “events at the treating physician's”
as §2, with “tested” for “genotyped”, “Biosystems).” for “Biosystems). Amplification of extracted DNA was carried out using both forward and reverse primers for each gene polymorphism as shown in Table 1.”, “data.” for “data of the study patients.”
The primary endpoint in this study was progression-free survival (PFS), and the secondary endpoints were overall survival (OS) and disease control rate (DCR). […]

[1] = KRAS Mutant vs Wild type (Ref.), univariate
[2] = LN metastasis No vs Yes (Ref.), univariate
[3] = Liver metastasis No vs Yes (Ref.), univariate
[4] = Lung metastasis No vs Yes (Ref.), univariate
[5] = Number of metastases >2 vs ≤2 (Ref.), univariate
[6] = Performance status ECOG 1 vs ECOG 0 (Ref.), univariate
[7] = Peritoneal No vs Yes (Ref.), univariate
[8] = Pre-chemo numbers ≥4 vs <4 (Ref.), univariate
[9] = Primary tumor resection No vs Yes (Ref.), univariate

In the case of CNC(=O)c1cc(Oc2ccc(NC(=O)Nc3ccc(Cl)c(C(F)(F)F)c3)c(F)c2)ccn1 [regorafenib], the “HR PFS (95% CI)” value (CHEK2 rs2267130 T/C vs T/T (Ref.), univariate) was 1.02 (0.54, 1.95), the “Disease Control CR/PR/SD, patients n (%)” value (CHEK2 rs2267130 T/T) was 4 (31%) and the “Median OS (95% CI)” value (CHEK2 rs2267130 T/T) was 3.8 (2.2, 8.0) months. The “Median PFS (95% CI)” value (CHEK2 rs2267130 T/T) was 1.9 (1.4, 3.4) months, the “PD, patients n (%)” value (CHEK2 rs2267130 T/T) was 9 (69%) and the “Median OS” value (KRAS Mutant) was 4.8 months. For the same compound, the “Median PFS” value (KRAS Mutant) was 2.0 months, the “HR OS” value [1] was 0.93 and the “HR PFS” value [1] was 1.05. The “Median OS” value (KRAS Wild type) was 6.3 months, the “Median PFS” value (KRAS Wild type) was 1.9 months and the “Median OS” value (LN metastasis No) was 7.7 months. For the same compound, the “Median PFS” value (LN metastasis No) was 2.8 months, the “HR OS” value [2] was 0.62 and the “HR PFS” value [2] was 0.52. The “Median OS” value (LN metastasis Yes) was 3.8 months, the “Median PFS” value (LN metastasis Yes) was 1.8 months and the “Median OS” value (Liver metastasis No) was 6.6 months. For the same compound, the “Median PFS” value (Liver metastasis No) was 4.8 months, the “HR OS” value [3] was 0.61 and the “HR PFS” value [3] was 0.46. For the same compound, the “Median OS” value (Liver metastasis Yes) was 4.7 months, the “Median PFS” value (Liver metastasis Yes) was 1.9 months and the “Median OS” value (Lung metastasis No) was 3.7 months. For the same compound, the “Median PFS” value (Lung metastasis No) was 2.0 months, the “HR OS” value [4] was 1.24 and the “HR PFS” value [4] was 1.17. The “Median OS” value (Lung metastasis Yes) was 5.9 months, the “Median PFS” value (Lung metastasis Yes) was 1.9 months and the “Median OS” value (Number of metastases >2) was 4.0 months. For the same compound, the “Median PFS” value (Number of metastases >2) was 1.9 months, the “HR OS” value [5] was 1.59 and the “HR PFS” value [5] was 1.86. The “Median OS” value (Number of metastases ≤2) was 6.3 months, the “Median PFS” value (Number of metastases ≤2) was 2.8 months and the “Median OS” value (Performance status ECOG 0) was 5.9 months. For the same compound, the “Median PFS” value (Performance status ECOG 0) was 2.1 months, the “Median OS” value (Performance status ECOG 1) was 2.4 months and the “Median PFS” value (Performance status ECOG 1) was 1.2 months. For the same compound, the “HR OS” value [6] was 2.09, the “HR PFS” value [6] was 2.27 and the “Median OS” value (Peritoneal No) was 5.5 months. The “Median PFS” value (Peritoneal No) was 2.0 months, the “HR OS” value [7] was 0.82 and the “HR PFS” value [7] was 0.87. The “Median OS” value (Peritoneal Yes) was 5.1 months, the “Median PFS” value (Peritoneal Yes) was 1.9 months and the “Median OS” value (Pre-chemo numbers <4) was 6.0 months. The “Median PFS” value (Pre-chemo numbers <4) was 2.0 months, the “Median OS” value (Pre-chemo numbers ≥4) was 4.7 months and the “Median PFS” value (Pre-chemo numbers ≥4) was 1.8 months. The “HR OS” value [8] was 1.16, the “HR PFS” value [8] was 0.95 and the “Median OS” value (Primary tumor resection No) was 4.2 months. For the same compound, the “Median PFS” value (Primary tumor resection No) was 2.0 months, the “HR OS” value [9] was 1.04 and the “HR PFS” value [9] was 0.79. The “Median OS” value (Primary tumor resection Yes) was 5.6 months and the “Median PFS” value (Primary tumor resection Yes) was 1.9 months.
